Target: T1, LAT1/CD98 heterodimer HAT complex (Homo sapiens, UniProt P08195+Q01650)
T1 construct: in the tumor cell lines earlier found to be highly sensitive to S1-F4 treatment; endogenous in cells
Assay: Amino acid (HPG) uptake assay
Type: cell-based
Conditions: HepG2 and Raji cells; antibody 15 μg/ml, BCH 10 mM
Protocol: Cells were incubated with 15 μg/ml antibody for 24 hr in growth medium. Then they were equilibrated for 30 min at 37° C. with Met-free DMEM. HPG (Thermo Fisher Scientific) was added to the cells at a final concentration of 70 μM. […] After 2-3 hr, cells were washed with PBS and lysed with lysis buffer (1% SDS in 50 mM Tris-HCL, pH 8.0) with complete protease inhibitors (Roche). HPG in cell lysis was biotinylated according to manufacturer instructions (Thermo Fisher Scientific). Then cell lysis was transferred into 96 well plate (Nunc, MaxiSorp™) and incubated at 4° C. overnight. The amount of HGP in cell lysates was then detected by streptavidin-HRP (Thermo Fisher Scientific) in an ELISA-based assay.
Amino acid uptake assay was conducted to analyze the effect of S1-F4 in amino acid transport. L-Homopropargylglycine (HPG), a methionine mimic, was used as a traceable substrate for the LAT1 (L-type/large neutral amino acid transporter 1)/CD98 heterodimer HAT complex, and the LAT1/CD98 complex inhibitor BCH (2-amino-2-norbornane-carboxylic acid) was used as a positive control for disrupting transport function.

T1 sequence (P08195 103-630 limits assumed): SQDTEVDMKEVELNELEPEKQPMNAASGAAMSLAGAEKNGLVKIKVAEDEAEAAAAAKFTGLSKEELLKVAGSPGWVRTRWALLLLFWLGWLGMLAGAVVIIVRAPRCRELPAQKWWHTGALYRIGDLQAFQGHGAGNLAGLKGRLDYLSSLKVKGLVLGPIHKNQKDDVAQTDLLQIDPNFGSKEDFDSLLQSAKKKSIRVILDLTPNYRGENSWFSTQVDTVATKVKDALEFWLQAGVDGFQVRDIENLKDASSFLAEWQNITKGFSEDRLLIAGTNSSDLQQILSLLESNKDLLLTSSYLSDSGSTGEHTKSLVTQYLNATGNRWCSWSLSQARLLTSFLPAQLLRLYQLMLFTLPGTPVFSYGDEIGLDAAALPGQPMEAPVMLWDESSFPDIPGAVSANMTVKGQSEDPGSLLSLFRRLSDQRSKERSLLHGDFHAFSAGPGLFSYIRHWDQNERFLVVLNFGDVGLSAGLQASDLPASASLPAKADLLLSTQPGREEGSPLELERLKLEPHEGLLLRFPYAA
T1 sequence (Q01650 whole entry): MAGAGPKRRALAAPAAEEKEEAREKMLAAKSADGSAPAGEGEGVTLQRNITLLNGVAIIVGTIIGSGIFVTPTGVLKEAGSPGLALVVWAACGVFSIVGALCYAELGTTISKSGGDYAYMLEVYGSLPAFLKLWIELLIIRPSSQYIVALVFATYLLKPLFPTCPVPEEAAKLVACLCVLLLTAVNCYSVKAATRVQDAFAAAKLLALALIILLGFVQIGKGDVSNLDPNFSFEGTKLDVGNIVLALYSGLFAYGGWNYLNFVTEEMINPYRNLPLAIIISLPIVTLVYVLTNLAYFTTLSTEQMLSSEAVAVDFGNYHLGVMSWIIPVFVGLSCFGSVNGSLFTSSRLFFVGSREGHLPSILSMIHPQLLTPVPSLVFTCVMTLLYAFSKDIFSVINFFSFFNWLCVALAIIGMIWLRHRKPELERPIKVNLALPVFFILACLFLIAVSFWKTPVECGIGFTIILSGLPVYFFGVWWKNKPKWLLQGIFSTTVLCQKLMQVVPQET

NC1(C(=O)O)CC2CCC1C2 (stereo not shown) [BCH, 2-amino-2-norbornane-carboxylic acid]
HPG uptake / HAT complex transport activity: impaired HAT complex transport activity

From patent publication US20250084177A1, “ANTI-CD98 ANTIBODIES AND USES THEREOF” (HUAHUI HEALTH LTD., priority 2021, published 2025)
